Laboratory results taken from patent US20240142467A1, “Use of Biomarkers in the Treatment of Fibrotic Conditions with a PDE4B-inhibitor” (Boehringer Ingelheim International GmbH, priority 2022, published 2024).

Test system: patients with idiopathic pulmonary fibrosis
Experiment: Phase 2 trial NCT04419506: change from baseline in FVC at 12 weeks
Assay type: in vivo, human
Settings: for lung function (FVC) compared to placebo: non-AF-background and AF-background groups; for lung function (FVC) compared to placebo / mean change in FVC from baseline to Week 12 / median change in FVC: 18 mg twice daily; for probability that the compound is superior to placebo: Bayesian borrowing analysis; for median change in FVC / median difference in FVC change vs placebo: Bayesian borrowing
Source text: Patients with a usual interstitial pneumonia (UIP) or probable UIP pattern on high-resolution computed tomography consistent with idiopathic pulmonary fibrosis, confirmed by central review, were eligible (Raghu et al, AM j Respir Crit Care Med 2019; 200:1089-1092). Patients also had forced FVC ≥45% predicted, and diffusing capacity of the lungs for carbon monoxide (DLco) corrected for hemoglobin 25-<80% predicted. Patients were permitted to continue antifibrotic therapy (nintedanib or pirfenidone) if they had been receiving a stable dose for at least 8 weeks prior to screening. Patients with airways obstruction, recent respiratory tract infection, or a history of suicidal behavior in the past 2 years, were excluded.
The primary endpoint—change from baseline in FVC at Week 12—was evaluated separately in patients without and with background antifibrotics at baseline, and included all data collected while on treatment. The primary analysis was based on a Bayesian borrowing approach in order to incorporate historical data for the placebo arms within the groups treated without or with background antifibrotics via meta-analytic predictive priors that were made robust against prior-data conflicts (Schmidli et al, Biometrics 2014 70: 1023-1032). A vaguely informative prior was used for the arms using the PDE4 inhibitor of formula A′ (Compound of formula A′ in the following). The primary endpoint analysis was conducted in a two-step procedure. In the first step, the data from the current trial were analyzed with a restricted maximum likelihood-based approach using a mixed model with repeated measurements (MMRM). The analysis included the fixed, categorical effect of treatment at each visit, and the fixed, continuous effects of baseline FVC at each visit. Visit was treated as the repeated measure, with an unstructured covariance structure used to model the within-patient measurements. Based on this model, the adjusted mean changes from baseline in FVC at 12 weeks (and the related standard error) were calculated for the Compound of formula A′ and placebo arms within the patient groups without and with background antifibrotics. In the second step, the adjusted means in the placebo arms were combined with the meta-analytic predictive priors derived based on the clinical trials in the nintedanib clinical development program in idiopathic pulmonary fibrosis. In order to evaluate the treatment effects in each group, the posterior distribution for the treatment difference of the compound of formula A′ versus placebo with respect to the primary endpoint was used. The median of the posterior distribution for the treatment difference (and 95% credible intervals) was calculated as the primary analysis, and posterior probabilities that the treatment difference was higher than different boundaries were reported.
Missing data for the primary analysis (continuous endpoint) were not imputed. The MMRM analysis allows for missing data, assuming they are missing at random. Sensitivity analyses were conducted to investigate the potential effect of missing data as well as early discontinuation via a treatment policy strategy, and a pooled analysis combining all patients irrespective of background treatment with antifibrotics.
As this was an exploratory trial, no confirmatory testing and adjustment for multiplicity was planned. The sample size was chosen based on the evaluations of posterior probabilities for the change from baseline in FVC at Week 12, assuming a standard deviation of 200 mL and treatment differences of 70 mL and 20 mL in the patients treated without or with background antifibrotics, respectively.

[1] = with background antifibrotics, Week 12
[2] = without background antifibrotics, Week 12

## [O-][S@+]1CCc2nc(N3CCC(c4ncc(Cl)cn4)CC3)nc(NC3(CO)CCC3)c21 [Compound of formula A′]
  lung function (FVC) compared to placebo: stabilized lung function
Listed as PDE4-inhibitor of formula A′
  lung function (FVC) compared to placebo: significantly slowed decrease in lung function
Pooled group with and without background antifibrotics, MMRM
  adjusted mean change from baseline in FVC after 12 weeks: +4.6 ml
Pooled group with and without background antifibrotics, MMRM, Week 12
  overall treatment effect on FVC (difference vs placebo): 88.4 mL
With background antifibrotics
  probability that the compound is superior to placebo: 98.6%
With background antifibrotics, MMRM
  mean change in FVC from baseline to Week 12: +2.7 mL
With background antifibrotics, MMRM, Week 12
  difference in mean FVC change vs placebo: 80.4 mL
[1]
  median change in FVC: +2.7 mL
  median difference in FVC change vs placebo: 62.4 mL
Without background antifibrotics
  probability that the compound is superior to placebo: 99.8%
Without background antifibrotics, MMRM
  mean change in FVC from baseline to Week 12: +6.1 mL
Without background antifibrotics, MMRM, Week 12
  difference in mean FVC change vs placebo: 101.7 mL
[2]
  median change in FVC: +5.7 mL
  median difference in FVC change vs placebo: 88.4 mL
